# Test results taken from patent publication US10092620B2, “Uses of cyclic peptides for treating and preventing atherosclerosis” (THE SCRIPPS RESEARCH INSTITUTE, priority 2013, dated 2018).
# Non-standard residues stand in square brackets, D forms with d. 2Nal = N[C@@H](Cc1ccc2ccccc2c1)C(=O)O; 4Pal = N[C@@H](Cc1ccncc1)C(=O)O; d3Pal = N[C@H](Cc1cccnc1)C(=O)O; Aoc(2) = CCCCCC[C@H](N)C(=O)O; Orn = NCCC[C@H](N)C(=O)O
# System: HDL in human plasma
# Assay: pre-beta HDL ELISA assay: remodeling HDL in human plasma in vitro
# Assay type: biochemical
# Settings: pre-beta HDL ELISA
# Protocol: First, various cyclic peptides, including the majority of compounds shown in FIG. 2, were assessed for activities for remodeling HDL in human plasma in vitro. Unlike western blot which was used to generate data shown in FIG. 2, here a pre-beta HDL ELISA assay was used to measure pre-beta HDL levels. Results from the assay are shown in Table 1, which lists the peptides in the order of their activities in remodeling HDL.
row,Substance,Pre-beta HDL generated (normalized level)
1,19 (cyclo([dW]L[dW][Orn][dE]N[dE][Orn]); SMILES CC(C)C[C@@H]1NC(=O)[C@@H](Cc2c[nH]c3ccccc23)NC(=O)[C@H](CCCN)NC(=O)[C@@H](CCC(=O)O)NC(=O)[C@H](CC(N)=O)NC(=O)[C@@H](CCC(=O)O)NC(=O)[C@H](CCCN)NC(=O)[C@@H](Cc2c[nH]c3ccccc23)NC1=O) [compound 19],0.36
2,20 (cyclo([dW]L[dL]E[dE]K[dK]N); SMILES CC(C)C[C@@H]1NC(=O)[C@@H](Cc2c[nH]c3ccccc23)NC(=O)[C@H](CC(N)=O)NC(=O)[C@@H](CCCCN)NC(=O)[C@H](CCCCN)NC(=O)[C@@H](CCC(=O)O)NC(=O)[C@H](CCC(=O)O)NC(=O)[C@@H](CC(C)C)NC1=O) [compound 20],0.07
3,22 (cyclo([dW][Aoc(2)][dW]S[dE]Q[dS][Orn]); SMILES CCCCCC[C@@H]1NC(=O)[C@@H](Cc2c[nH]c3ccccc23)NC(=O)[C@H](CCCN)NC(=O)[C@@H](CO)NC(=O)[C@H](CCC(N)=O)NC(=O)[C@@H](CCC(=O)O)NC(=O)[C@H](CO)NC(=O)[C@@H](Cc2c[nH]c3ccccc23)NC1=O) [compound 22],0.13
4,23 (cyclo([dW]L[dW]R[dE]N[dE][Orn]); SMILES CC(C)C[C@@H]1NC(=O)[C@@H](Cc2c[nH]c3ccccc23)NC(=O)[C@H](CCCN)NC(=O)[C@@H](CCC(=O)O)NC(=O)[C@H](CC(N)=O)NC(=O)[C@@H](CCC(=O)O)NC(=O)[C@H](CCCNC(=N)N)NC(=O)[C@@H](Cc2c[nH]c3ccccc23)NC1=O) [compound 23],0.16
5,24 (cyclo([dW]L[dW]H[dE]Q[dE]H); SMILES CC(C)C[C@@H]1NC(=O)[C@@H](Cc2c[nH]c3ccccc23)NC(=O)[C@H](Cc2c[nH]cn2)NC(=O)[C@@H](CCC(=O)O)NC(=O)[C@H](CCC(N)=O)NC(=O)[C@@H](CCC(=O)O)NC(=O)[C@H](Cc2c[nH]cn2)NC(=O)[C@@H](Cc2c[nH]c3ccccc23)NC1=O) [compound 24],0.09
6,25 (cyclo([dY]W[dY]K[dS]H[dA]E); SMILES C[C@H]1NC(=O)[C@H](Cc2c[nH]cn2)NC(=O)[C@@H](CO)NC(=O)[C@H](CCCCN)NC(=O)[C@@H](Cc2ccc(O)cc2)NC(=O)[C@H](Cc2c[nH]c3ccccc23)NC(=O)[C@@H](Cc2ccc(O)cc2)NC(=O)[C@H](CCC(=O)O)NC1=O) [compound 25],0.19
7,"26 (cyclo([dW]L[dL][dW]K[dD]D[dK]); not fully specified (residues 5, 7)) [compound 26]",0.36
8,30 (cyclo([dW]L[dW]S[dE]Q[dS]K)) [compound 30],0.06
9,"34 (cyclo([dY]D[dY]W[dY]H[dA]K); not fully specified (residues 2, 4, 6, 8)) [compound 34]",0.08
10,35 (cyclo([dW]L[dW]R[dE]Q[dE][Orn]); SMILES CC(C)C[C@@H]1NC(=O)[C@@H](Cc2c[nH]c3ccccc23)NC(=O)[C@H](CCCN)NC(=O)[C@@H](CCC(=O)O)NC(=O)[C@H](CCC(N)=O)NC(=O)[C@@H](CCC(=O)O)NC(=O)[C@H](CCCNC(=N)N)NC(=O)[C@@H](Cc2c[nH]c3ccccc23)NC1=O) [compound 35],0.02
11,40 (cyclo([dW]L[dW]S[dE]Q[dH]K); SMILES CC(C)C[C@@H]1NC(=O)[C@@H](Cc2c[nH]c3ccccc23)NC(=O)[C@H](CCCCN)NC(=O)[C@@H](Cc2c[nH]cn2)NC(=O)[C@H](CCC(N)=O)NC(=O)[C@@H](CCC(=O)O)NC(=O)[C@H](CO)NC(=O)[C@@H](Cc2c[nH]c3ccccc23)NC1=O) [compound 40],0.40
12,47 (cyclo(WIW[dW][dK][dH][dK][dH]); SMILES CC[C@H](C)[C@@H]1NC(=O)[C@H](Cc2c[nH]c3ccccc23)NC(=O)[C@@H](Cc2c[nH]cn2)NC(=O)[C@@H](CCCCN)NC(=O)[C@@H](Cc2c[nH]cn2)NC(=O)[C@@H](CCCCN)NC(=O)[C@@H](Cc2c[nH]c3ccccc23)NC(=O)[C@H](Cc2c[nH]c3ccccc23)NC1=O) [compound 47],0.79
13,48 (cyclo([dW]F[dY]Y[dH][Orn][dR]S); SMILES N=C(N)NCCC[C@H]1NC(=O)[C@H](CCCN)NC(=O)[C@@H](Cc2c[nH]cn2)NC(=O)[C@H](Cc2ccc(O)cc2)NC(=O)[C@@H](Cc2ccc(O)cc2)NC(=O)[C@H](Cc2ccccc2)NC(=O)[C@@H](Cc2c[nH]c3ccccc23)NC(=O)[C@H](CO)NC1=O) [compound 48],0.70
14,49 (cyclo([4Pal][dW]L[dL]H[dS]K[dK]); not fully specified; printed as c[(PA)wLlHsKk]) [compound 49],0.67
15,50 (cyclo(WIW[dR]E[dQ]E[dR]); SMILES CC[C@H](C)[C@@H]1NC(=O)[C@H](Cc2c[nH]c3ccccc23)NC(=O)[C@@H](CCCNC(=N)N)NC(=O)[C@H](CCC(=O)O)NC(=O)[C@@H](CCC(N)=O)NC(=O)[C@H](CCC(=O)O)NC(=O)[C@@H](CCCNC(=N)N)NC(=O)[C@H](Cc2c[nH]c3ccccc23)NC1=O) [compound 50],0.54
16,51 (cyclo([dF]W[dW]Y[dT]R[dH]S); SMILES C[C@H](O)[C@H]1NC(=O)[C@H](Cc2ccc(O)cc2)NC(=O)[C@@H](Cc2c[nH]c3ccccc23)NC(=O)[C@H](Cc2c[nH]c3ccccc23)NC(=O)[C@@H](Cc2ccccc2)NC(=O)[C@H](CO)NC(=O)[C@@H](Cc2c[nH]cn2)NC(=O)[C@H](CCCNC(=N)N)NC1=O) [compound 51],1.44
17,52 (cyclo([dW]F[dF]Y[dR]H[dH]S); SMILES N=C(N)NCCC[C@H]1NC(=O)[C@H](Cc2ccc(O)cc2)NC(=O)[C@@H](Cc2ccccc2)NC(=O)[C@H](Cc2ccccc2)NC(=O)[C@@H](Cc2c[nH]c3ccccc23)NC(=O)[C@H](CO)NC(=O)[C@@H](Cc2c[nH]cn2)NC(=O)[C@H](Cc2c[nH]cn2)NC1=O) [compound 52],0.52
18,54 (cyclo([dW]L[dW]R[dE]Q[dE]R); SMILES CC(C)C[C@@H]1NC(=O)[C@@H](Cc2c[nH]c3ccccc23)NC(=O)[C@H](CCCNC(=N)N)NC(=O)[C@@H](CCC(=O)O)NC(=O)[C@H](CCC(N)=O)NC(=O)[C@@H](CCC(=O)O)NC(=O)[C@H](CCCNC(=N)N)NC(=O)[C@@H](Cc2c[nH]c3ccccc23)NC1=O) [compound 54],0.46
19,55 (cyclo(L[dW]L[dW]L[dS]E[dK]); SMILES CC(C)C[C@@H]1NC(=O)[C@@H](Cc2c[nH]c3ccccc23)NC(=O)[C@H](CC(C)C)NC(=O)[C@@H](Cc2c[nH]c3ccccc23)NC(=O)[C@H](CC(C)C)NC(=O)[C@@H](CCCCN)NC(=O)[C@H](CCC(=O)O)NC(=O)[C@@H](CO)NC1=O) [compound 55],0.35
20,56 (cyclo([dF]F[dY]Y[dS]R[dK][Orn]); ring closure inferred) [compound 56],0.31
21,57 (cyclo([dW]L[dW]K[dS]K); SMILES CC(C)C[C@@H]1NC(=O)[C@@H](Cc2c[nH]c3ccccc23)NC(=O)[C@H](CCCCN)NC(=O)[C@@H](CO)NC(=O)[C@H](CCCCN)NC(=O)[C@@H](Cc2c[nH]c3ccccc23)NC1=O) [compound 57],0.30
22,58 (cyclo([d3Pal]L[dW]K[dS]K[dS]K); ring closure inferred) [compound 58],0.27
23,59 (cyclo([dW]Y[dW]Y[dS]R[dS][dS]); SMILES N=C(N)NCCC[C@@H]1NC(=O)[C@@H](CO)NC(=O)[C@H](Cc2ccc(O)cc2)NC(=O)[C@@H](Cc2c[nH]c3ccccc23)NC(=O)[C@H](Cc2ccc(O)cc2)NC(=O)[C@@H](Cc2c[nH]c3ccccc23)NC(=O)[C@@H](CO)NC(=O)[C@@H](CO)NC1=O) [compound 59],0.24
24,60 (cyclo([dW][2Nal][dK]S[dK]S[dK]S); ring closure inferred) [compound 60],0.20
25,61 (cyclo([dY]A[dY]L[dK]H[dK]K); SMILES CC(C)C[C@@H]1NC(=O)[C@@H](Cc2ccc(O)cc2)NC(=O)[C@H](C)NC(=O)[C@@H](Cc2ccc(O)cc2)NC(=O)[C@H](CCCCN)NC(=O)[C@@H](CCCCN)NC(=O)[C@H](Cc2c[nH]cn2)NC(=O)[C@@H](CCCCN)NC1=O) [compound 61],0.19
26,62 (cyclo([dY]Y[dV]Y[dH]H); SMILES CC(C)[C@H]1NC(=O)[C@H](Cc2ccc(O)cc2)NC(=O)[C@@H](Cc2ccc(O)cc2)NC(=O)[C@H](Cc2c[nH]cn2)NC(=O)[C@@H](Cc2c[nH]cn2)NC(=O)[C@H](Cc2ccc(O)cc2)NC1=O) [compound 62],0.17
27,64 (cyclo([dW]F[dW]Y[dR]S[dS]H); SMILES N=C(N)NCCC[C@H]1NC(=O)[C@H](Cc2ccc(O)cc2)NC(=O)[C@@H](Cc2c[nH]c3ccccc23)NC(=O)[C@H](Cc2ccccc2)NC(=O)[C@@H](Cc2c[nH]c3ccccc23)NC(=O)[C@H](Cc2c[nH]cn2)NC(=O)[C@@H](CO)NC(=O)[C@H](CO)NC1=O) [compound 64],0.16
28,65 (cyclo([dY]G[dW]W[dN]N[dK]N); SMILES NCCCC[C@H]1NC(=O)[C@H](CC(N)=O)NC(=O)[C@@H](CC(N)=O)NC(=O)[C@H](Cc2c[nH]c3ccccc23)NC(=O)[C@@H](Cc2c[nH]c3ccccc23)NC(=O)CNC(=O)[C@@H](Cc2ccc(O)cc2)NC(=O)[C@H](CC(N)=O)NC1=O) [compound 65],0.11
29,66 (cyclo([dW][benzyltyrosine][dK]N[dN]K[dK]K); ring closure inferred) [compound 66],0.10
30,67 (cyclo([dW][homoleucine][dW]R[dE]Q[dE]R); ring closure inferred) [compound 67],0.08
